Data taken from patent US9365506B2, “Compounds and compositions as TLR2 agonists” (NOVARTIS AG, priority 2010, dated 2016).

Target: human TLR2 (Homo sapiens, UniProt O60603)
Assay: Reporter gene assay: HEK 293 cells stably transfected with human TLR2 and NF-kB-driven luciferase reporter
Settings: for Emax: HEK293, 7 h, read-out: Hek-TLR2 (% Eff); for EC50: Hek-TLR2 μM (EC50), HEK 293 stably transfected with human TLR2 and pNifty-Luciferase, 7 hours incubation, concentration giving 50% of maximal signal
Protocol: As a control assay, normal Hek293 transfected with pNifty-Luc were used. […] Bright-Glo™ Luciferase assay buffer and substrate were supplied by Promega #E263B and #E264B (assay substrate and buffer respectively). 384 well clear-bottom plates were supplied by Greiner bio-one (#789163-G) and were custom bar-coded plates.
Cells were plated at 25,000 cells/well in 384-well plates in a final volume of 50 μl of media. Cells were allowed to adhere to the plates after overnight (18 hours) culture at 37° C. and 5% CO2. Serially diluted experimental and positive control compounds were then dispensed to each well and incubated for 7 hours at 37° C. and 5% CO2. Cells stimulated with DMSO alone also serve as negative controls. After the incubation, 30 μl of the pre-mix assay buffer and substrate buffer were added to each well according to manufacturer's instructions. The luminescence signal was read on a CLIPR machine with an integration time of 20 seconds per plate.

human TLR2, sequence (O60603 21-784): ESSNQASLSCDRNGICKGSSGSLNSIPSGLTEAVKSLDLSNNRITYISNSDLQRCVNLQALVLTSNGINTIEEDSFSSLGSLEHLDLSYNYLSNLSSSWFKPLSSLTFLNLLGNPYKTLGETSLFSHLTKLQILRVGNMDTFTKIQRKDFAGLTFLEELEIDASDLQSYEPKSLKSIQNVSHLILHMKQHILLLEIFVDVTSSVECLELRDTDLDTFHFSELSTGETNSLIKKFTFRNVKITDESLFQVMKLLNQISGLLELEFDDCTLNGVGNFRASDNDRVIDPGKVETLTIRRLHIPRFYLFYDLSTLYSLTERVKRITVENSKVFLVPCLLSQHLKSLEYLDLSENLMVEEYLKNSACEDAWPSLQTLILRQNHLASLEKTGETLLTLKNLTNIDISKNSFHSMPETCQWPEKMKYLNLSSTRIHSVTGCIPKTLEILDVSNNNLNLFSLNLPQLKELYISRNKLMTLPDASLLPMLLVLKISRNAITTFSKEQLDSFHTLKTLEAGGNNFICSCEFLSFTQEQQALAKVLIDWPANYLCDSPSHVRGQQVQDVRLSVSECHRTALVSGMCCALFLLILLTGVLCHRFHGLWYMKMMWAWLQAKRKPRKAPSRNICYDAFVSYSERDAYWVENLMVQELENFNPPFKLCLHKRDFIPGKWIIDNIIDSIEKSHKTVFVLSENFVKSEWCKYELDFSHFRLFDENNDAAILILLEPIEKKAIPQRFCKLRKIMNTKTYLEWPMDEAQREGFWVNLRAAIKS

Compound	Emax [%]	EC50 [nM]	Hek-TLR2 (% Eff) (% Eff relative to Pam3CSK4, HEK 293 human TLR2 NF-kB luciferase)
CCCCCCCCCCCC(=O)OC[C@H](CSC[C@H](N)C(=O)NCCOCCOCCC(F)(F)P(=O)(O)O)OC(=O)CCCCCCCCCCC [Example 4, (12R,16R)-12-amino-16-(dodecanoyloxy)-1,1-difluoro-11,19-dioxo-4,7,18-trioxa-14-thia-10-azatriacontylphosphonic acid]	101	31	
CCCCCCCCCCCC(=O)OC[C@H](CSC[C@H](N)C(=O)NCCCCCN)OC(=O)CCCCCCCCCCC [Example 7, (R)-3-((R)-2-amino-3-(5-aminopentylamino)-3-oxopropylthio)propane-1,2-diyl didodecanoate]	113	1220	
CCCCCCCCCCCC(=O)OC[C@H](CSC[C@H](N)C(=O)NCCCOCCCCOCCCN)OC(=O)CCCCCCCCCCC [Example 8, (2R,6R)-6,20-diamino-7-oxo-12,17-dioxa-4-thia-8-azaicosane-1,2-diyl didodecanoate]	98	810	
CCCCCCCCCCCC(=O)OC[C@H](CSC[C@H](N)C(=O)NCCCOCCOCCOCCCNC(=O)C(N)CS)OC(=O)CCCCCCCCCCC (stereo partly drawn) [Example 9, (20R,24R)-2,20-diamino-1-mercapto-3,19-dioxo-8,11,14-trioxa-22-thia-4,18-diazapentacosane-24,25-diyl didodecanoate]	73	247	
CCCCCCCCCCCCCCCCOC[C@H](CSC[C@H](N)C(=O)N[C@@H](CC)C(=O)N[C@H](CCC(=O)O)C(N)=O)OCCCCCCCCCCCCCCCC [Example 10, (4R,7S,10R,14R)-10-amino-4-carbamoyl-7-ethyl-14-(hexadecyloxy)-6,9-dioxo-16-oxa-12-thia-5,8-diazadotriacontan-1-oic acid]	72	14100	
CCCCCCCCCCCCCCCCOC[C@H](CSC[C@H](N)C(=O)NC1(CO)CC1)NC(=O)CCCCCCCCCCC [Example 11, N—((R)-1-((R)-2-amino-3-(1-(hydroxymethyl)cyclopropylamino)-3-oxopropylthio)-3-(hexadecyloxy)propan-2-yl)dodecanamide]	3.6	> 100000	
CCCCCCCCCCCC(=O)NC[C@H](CSC[C@H](N)C(=O)NC1(CO)CC1)NC(=O)CCCCCCCCCCC [Example 12, N,N′—((R)-3-((R)-2-amino-3-(1-(hydroxymethyl)cyclopropylamino)-3-oxopropylthio)propane-1,2-diyl)didodecanamide]	3.5	> 100000	
CCCCCCCCCCCC(=O)OC[C@H](CSC[C@H](N)C(=O)N[C@@H](CC)COCC(=O)O)OC(=O)CCCCCCCCCCC [Example 13, (5S,8R,12R)-8-amino-12-(dodecanoyloxy)-5-ethyl-7,15-dioxo-3,14-dioxa-10-thia-6-azahexacosan-1-oic acid]	118	6500	
CCCCCCCCCCCC(=O)OC[C@H](CSC[C@H](N)C(=O)N[C@@H](C)COCCCP(=O)(O)O)OC(=O)CCCCCCCCCCC [Example 14, (6S,9R,13R)-9-amino-13-(dodecanoyloxy)-6-methyl-8,16-dioxo-4,15-dioxa-11-thia-7-azaheptacosylphosphonic acid]	153	19.2	
CCCCCCCCCCCC(=O)OC[C@H](CSC[C@H](N)C(=O)NCCc1ccc(OCCCP(=O)(O)O)cc1)OC(=O)CCCCCCCCCCC [Example 16, 3-(4-(2-((R)-2-amino-3-((R)-2,3-bis(dodecanoyloxy)propylthio)propanamido)ethyl)phenoxy)propylphosphonic acid]	107	410	
CCCCCCCCCCCC(=O)OC[C@H](CSC[C@H](N)C(=O)NCCOCCC(F)(F)P(=O)(O)O)OC(=O)CCCCCCCCCCC [Example 21, (9R,13R)-9-amino-13-(dodecanoyloxy)-1,1-difluoro-8,16-dioxo-4,15-dioxa-11-thia-7-azaheptacosylphosphonic acid]	122	14	
CCCCCCCCCCCCOC[C@H](CSC[C@H](N)C(=O)NCCOCCOCCC(F)(F)P(=O)(O)O)OCCCCCCCCCCCC [Example 22, (12R,16R)-12-amino-16-(dodecyloxy)-1,1-difluoro-11-oxo-4,7,18-trioxa-14-thia-10-azatriacontylphosphonic acid]	60	2450	
CCCCCCCC(=O)OC[C@H](CSC[C@H](N)C(=O)NCCOCCOCCOCCP(=O)(O)O)OC(=O)CCCCCCC [Example 23, (14R,18R)-14-amino-18-(octanoyloxy)-13,21-dioxo-3,6,9,20-tetraoxa-16-thia-12-azaoctacosylphosphonic acid]	73	3040	
CCCCCCCCCCCCCC(=O)OC[C@H](CSC[C@H](N)C(=O)NCCOCCOCCOCCP(=O)(O)O)OC(=O)CCCCCCCCCCCCC [Example 25, (14R,18R)-14-amino-13,21-dioxo-18-(tetradecanoyloxy)-3,6,9,20-tetraoxa-16-thia-12-azatetratriacontylphosphonic acid]	99	6.3	
CCCCCCCCCCCCOC[C@H](CSC[C@H](N)C(=O)NCCOCCOCCOCCP(=O)(O)O)OC(=O)CCCCCCCCCCC [Example 27, ((14R,18R)-14-amino-18-(dodecanoyloxy)-13-oxo-3,6,9,20-tetraoxa-16-thia-12-azadotriacontyl)phosphonic acid]	77	610	
CCCCCCCCCCCCOC[C@H](CSC[C@H](N)C(=O)N[C@@H](C)COCCOCCOCCP(=O)(O)O)NC(=O)CCCCCCCCCCC [Example 28, ((11S,14R,18R)-14-amino-18-dodecanamido-11-methyl-13-oxo-3,6,9,20-tetraoxa-16-thia-12-azadotriacontyl)phosphonic acid]	37	990	
CCCCCCCCCCCCOC[C@H](CSC[C@H](N)C(=O)N[C@@H](C)COCCOCCOCCP(=O)(O)O)OCCCCCCCCCCCC [Example 29, ((11S,14R,18R)-14-amino-18-(dodecyloxy)-11-methyl-13-oxo-3,6,9,20-tetraoxa-16-thia-12-azadotriacontyl)phosphonic acid]	74	1850	
CCCCCCCCCCCCOC[C@H](CSC[C@H](N)C(=O)N[C@@H](C)C(=O)NCCOCCOCCP(=O)(O)O)OCCCCCCCCCCCC [Example 30, ((11S,14R,18R)-14-amino-18-(dodecyloxy)-11-methyl-10,13-dioxo-3,6,20-trioxa-16-thia-9,12-diazadotriacontyl)phosphonic acid]	59	920	

Continued, values first:

Emax [%]	EC50 [nM]	Hek-TLR2 (% Eff) (% Eff relative to Pam3CSK4, HEK 293 human TLR2 NF-kB luciferase)	Compound
35	2910		CCCCCCCCCCCCOC[C@H](CSC[C@H](N)C(=O)N[C@@H](C)C(=O)NCCOCCOCCP(=O)(O)O)NC(=O)CCCCCCCCCCC [Example 31, ((11S,14R,18R)-14-amino-18-dodecanamido-11-methyl-10,13-dioxo-3,6,20-trioxa-16-thia-9,12-diazadotriacontyl)phosphonic acid]
78	9130		CCCCCCCCCCCCOC[C@H](CSC[C@H](N)C(=O)NCCOCCOCCOCCC(=O)O)OCCCCCCCCCCCC [Example 32, (15R,19R)-15-amino-19-(dodecyloxy)-14-oxo-4,7,10,21-tetraoxa-17-thia-13-azatritriacontan-1-oic acid]
48	3850		CCCCCCCCCCCCOC[C@H](CSC[C@H](N)C(=O)NCCOCCOCCOCCC(=O)O)NC(=O)CCCCCCCCCCC [Example 33, (15R,19R)-15-amino-19-dodecanamido-14-oxo-4,7,10,21-tetraoxa-17-thia-13-azatritriacontan-1-oic acid]
47	> 100000		CCCCCCCCCCCCCCCC(=O)N[C@@H](CSC[C@@H](COC(=O)CCCCCCCCCCC)OC(=O)CCCCCCCCCCC)C(=O)NCCOCCOCCOCCP(=O)(O)O [Example 34, ((14R,18R)-18-(dodecanoyloxy)-13,21-dioxo-14-palmitamido-3,6,9,20-tetraoxa-16-thia-12-azadotriacontyl)phosphonic acid]
15	770		CCCCCCCCCCCCOC[C@H](CSC[C@H](N)C(=O)NCCOCCOCCC(F)(F)P(=O)(O)O)NC(=O)CCCCCCCCCCC [Example 35, (12R,16R)-12-amino-16-dodecanamido-1,1-difluoro-11-oxo-4,7,18-trioxa-14-thia-10-azatriacontylphosphonic acid]
	822	(76%)	CCCCCCCCCCNC(=O)OC[C@H](CSC[C@H](N)C(=O)NCCOCCOCCOCCP(=O)(O)O)OC(=O)NCCCCCCCCCC [Example 36, (14R,18R)-14-amino-18-(decylcarbamoyloxy)-13,21-dioxo-3,6,9,20-tetraoxa-16-thia-12,22-diazadotriacontylphosphonic acid]
7	6210		CCCCCCCCCCNC(=O)OC[C@H](CSC[C@H](N)C(=O)NCCOCCOCCOCCC(=O)O)OC(=O)NCCCCCCCCCC [Example 37, (15R,19R)-15-amino-19-(decylcarbamoyloxy)-14,22-dioxo-4,7,10,21-tetraoxa-17-thia-13,23-diazatritriacontan-1-oic acid]
107	7030		CCCCCCCCNC(=O)OC[C@H](CSC[C@H](N)C(=O)NCCOCCOCCOCCP(=O)(O)O)OC(=O)NCCCCCCCC [Example 38, (14R,18R)-14-amino-18-(octylcarbamoyloxy)-13,21-dioxo-3,6,9,20-tetraoxa-16-thia-12,22-diazatriacontylphosphonic acid]
92	2640		CCCCCCCCCCCCCCCC(=O)N[C@@H](CSC[C@@H](COC(=O)NCCCCCCCCCC)OC(=O)NCCCCCCCCCC)C(=O)NCCOCCOCCOCCP(=O)(O)O [Example 39, (14R,18R)-18-(decylcarbamoyloxy)-13,21-dioxo-14-palmitamido-3,6,9,20-tetraoxa-16-thia-12,22-diazadotriacontylphosphonic acid]
